Laboratory results: patent EP0049203A1, “Benzoxazolinones substituted in the 6-position by an amino-alcohol or amino-ketone chain, their preparation and their therapeutic use” (RIOM LABORATOIRES- C.E.R.M. (Société Anonyme), priority 1980, dated 1982)

Tests used:
[1] = molecular target: T1, récepteurs β1 de l'oreillette gauche de cobaye (Cavia porcellus, UniProt H0W3H1); experiment: Antagonism of the positive inotropic effect of isoprenaline on electrically stimulated isolated left atrium; conditions: β1, guinea-pig left atrium; for Kb: antagonism of isoprenaline, read-out: pA2 (converted)
T1 construct: l'oreillette gauche de cobaye stimulée électriquement; from tissue; host or cells: guinea pig left atrium, electrically stimulated
T1 sequence (H0W3H1 1-470): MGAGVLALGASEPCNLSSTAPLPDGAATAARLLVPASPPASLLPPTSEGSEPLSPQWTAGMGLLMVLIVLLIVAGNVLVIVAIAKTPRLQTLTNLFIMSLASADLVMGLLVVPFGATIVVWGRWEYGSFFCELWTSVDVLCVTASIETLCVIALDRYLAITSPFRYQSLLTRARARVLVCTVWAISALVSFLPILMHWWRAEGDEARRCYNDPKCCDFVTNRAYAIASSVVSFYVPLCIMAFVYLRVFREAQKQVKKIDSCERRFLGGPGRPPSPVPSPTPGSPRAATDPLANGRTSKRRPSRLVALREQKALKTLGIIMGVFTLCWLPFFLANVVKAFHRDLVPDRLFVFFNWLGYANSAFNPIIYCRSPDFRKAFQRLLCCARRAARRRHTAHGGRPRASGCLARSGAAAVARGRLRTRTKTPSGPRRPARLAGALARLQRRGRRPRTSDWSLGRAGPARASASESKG
Source text: (§1) L'activité pharmacologique des composés de l'invention a été révélée par recherche d'une interférence avec les récepteurs adrénergiques β1, β2 et α in vitro, conformément aux protocoles expérimentaux ci-après.
(§2) Récepteurs adrénergiques β1 : on recherche l'antagonisme de l'effet inotrope positif de l'isoprénaline sur les récepteurs β1 de l'oreillette gauche de cobaye stimulée électriquement.
(§3) Les résultats sont exprimés dans le tableau I par les paramètres usuels de pharmacologie moléculaire, selon les critères utilisés par Van Rossum [Arch. Int.

[2] = test system: récepteurs β1 de l'oreillette gauche de cobaye; experiment: as above; conditions: for cardiosélectivité: β1 versus β2, in words
Source text: as §1, §2, §3

[3] = molecular target: T2, récepteurs adrénergiques β2 du muscle trachéal de cobaye (Cavia porcellus, UniProt Q8K4Z4); experiment: Antagonism of the bronchodilator effects of isoprenaline on isolated tracheal muscle; conditions: guinea-pig tracheal muscle; for INTERFERENCE AVEC LES RECEPTEURS ADRENERGIQUES β2: result in words; for Kb: β2, antagonism of isoprenaline, read-out: pA2 (converted)
T2 construct: du muscle trachéal de cobaye; from tissue; host or cells: guinea pig tracheal muscle
T2 sequence (Q8K4Z4 whole entry): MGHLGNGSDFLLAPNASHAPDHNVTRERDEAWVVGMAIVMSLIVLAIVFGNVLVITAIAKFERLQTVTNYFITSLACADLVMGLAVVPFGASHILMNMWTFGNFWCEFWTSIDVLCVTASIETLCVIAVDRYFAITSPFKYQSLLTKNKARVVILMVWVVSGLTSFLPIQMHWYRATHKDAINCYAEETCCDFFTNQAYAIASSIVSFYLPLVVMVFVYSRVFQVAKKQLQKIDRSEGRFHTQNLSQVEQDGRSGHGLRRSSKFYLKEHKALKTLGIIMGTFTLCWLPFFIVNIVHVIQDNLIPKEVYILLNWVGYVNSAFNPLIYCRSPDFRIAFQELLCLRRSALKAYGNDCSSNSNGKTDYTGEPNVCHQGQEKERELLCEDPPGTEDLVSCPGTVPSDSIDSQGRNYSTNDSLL
Source text: as §1
Récepteurs adrénergiques β2 : on recherche l'antagonisme des effets bronchodilatateurs de l'isoprénaline sur les récepteurs p2 du muscle trachéal de cobaye.
as §3

[4] = test system: Récepteurs adrénergiques α; experiment: Interference with noradrenaline-induced contraction (cumulative doses) of isolated vas deferens; conditions: rat vas deferens; for pA2: noradrenaline contraction; for INTERFERENCE AVEC LES RECEPTEURS ADRENERGIQUES α: result in words
Source text: as §1
Récepteurs adrénergiques α : on étudie l'interférence des composés de l'invention sur la contraction du vas déferens isolé du rat, provoquée par des doses cumulatives de noradrénaline.
as §3

[5] = test system: souris; experiment: Thermal stimulus analgesia test (Eddy and Leimbach); format: in vivo; conditions: Mus musculus, po; test de stimulus thermique; par voie orale chez la souris; read-out: DE 50 (dose qui augmente de 50 % le temps de réaction)
Experimental: Dans le test de stimulus thermique [selon EDDY N.B., LEIMBACH D.J. Pharmacol. Exp. Ther., 107, 385-393, (1953)J la DE 50 de ce composé ― qui représente la dose de produit qui augmente de 50 % le temps de réaction des animaux traités par rapport à celui du groupe des animaux de contrôle - est de 4,4 mg/kg par voie orale chez la souris.

[6] = test system: souris; experiment: Chemical stimulus analgesia test (Siegmund; abdominal cramps); format: in vivo; conditions: Mus musculus, po; test de stimulus chimique; par voie orale chez la souris; read-out: DE 50 (dose qui inhibe de 50 % le nombre de crampes abdominales)
Experimental: Dans le test de stimulus chimique [SIEGMUND E., CADMUS R. GO LU - Proc. Soc. Exp. Biol. Med. 95, 729-731, (1957)] la DE 50 de ce composé - qui représente la dose qui inhibe de 50 % le nombre de crampes abdominales par rapport à celui du groupe des animaux de contrôle - est de 9 mg/kg par voie orale chez la souris.

Row | Kb [1] [µM] | INTERFERENCE AVEC LES RECEPTEURS ADRENERGIQUES β2 [3] | pD'2 [1] | SMILES | cardiosélectivité [2] | pA2 ([4]; α) | also measured
1 | 3.98 |  | 3,8 | COc1ccccc1N1CCN(CC(=O)c2ccc3c(c2)oc(=O)n3C)CC1 [compound 9, 2 [4-(2-méthoxyphényl)pipérazinyl] 1-(3-méthyl 2-benzoxazolinon-6-yl) éthanone] |  |  | 
2 | 2.82 | Agoniste partiel |  | COc1ccccc1N1CCN(CC(O)c2ccc3c(c2)oc(=O)n3C)CC1 (stereo not drawn) [compound 22] |  | pA2 = 5,7 ± 0,25 | 
3 | 2 | Inactif | 4,2 | Cn1c(=O)oc2cc(C(O)CN3CCC(Cc4ccccc4)CC3)ccc21 (stereo not drawn) [compound 25, 2-(4-benzylpipéradinyl) 1-(3-méthyl 2-benzoxazolinon-6-yl) éthanol] | importante, voire totale |  | 
4 | 6.17 | Inactif | 4 | C[C@@H]([C@H](O)c1ccc2c(c1)oc(=O)n2C)N1CCN(c2ccc(F)cc2)CC1 (relative stereo) [compound 28] | importante, voire totale |  | INTERFERENCE AVEC LES RECEPTEURS ADRENERGIQUES α [4]: Inactif
5 | 2.24 |  |  | COc1ccccc1N1CCN([C@@H](C)[C@H](O)c2ccc3c(c2)oc(=O)n3C)CC1 (relative stereo) [compound 27, Erythro 2-[4-(2-méthoxyphényl)pipéraziny] 1-(3-méthyl-2-benzoxazolinon-6-yl) propanol] |  | 6,14 ± 0,31 | Kb [3]: 20.9 µM; pD'2 ([4]; α): 4,73 ± 0,38
6 | 2.95 | Agoniste partiel | 4,50 ± 0,21 | C[C@@H]([C@H](O)c1ccc2c(c1)oc(=O)n2C)N1CCC(Cc2ccccc2)CC1 (relative stereo) [compound 29] |  |  | 
7 | 5.01 |  |  | Cn1c(=O)oc2cc(C(=O)CN3CCC(Cc4ccccc4)CC3)ccc21 [compound 13, 2-(4-benzyl-pipéridinyl) 1-(3-méthyl 2-benzoxazolinon-6-yl) éthanone] |  |  | 

Continued, molecule first:

Row | SMILES | Kb [1] [µM] | INTERFERENCE AVEC LES RECEPTEURS ADRENERGIQUES β2 [3] | pD'2 [1] | cardiosélectivité [2] | pA2 ([4]; α) | also measured
8 | O=c1[nH]c2ccc(C(O)CN3CCN(c4ccc(F)cc4)CC3)cc2o1 (stereo not drawn) [compound 30] | 3.98 | Inactif |  | importante, voire totale |  | 
9 | CC(C)(C)NCC(O)c1ccc2[nH]c(=O)oc2c1 (stereo not drawn) [compound 19] | 0.224 |  |  |  |  | Kb [3]: 1.48 µM; INTERFERENCE AVEC LES RECEPTEURS ADRENERGIQUES α [4]: Inactif
10 | NCC(O)c1ccc2[nH]c(=O)oc2c1 (stereo not drawn) [compound 16] | 6.31 | Inactif |  |  | pA2 = 4,73 ± 0,52 | 
11 | CC(C)NCC(O)c1ccc2[nH]c(=O)oc2c1 (stereo not drawn) [compound 18, 2-isopropylamino 1-(2-benzoxazolinon-6-yl) éthanol] | 0.0347 |  |  | de faible intensité | pA2 = 6,03 ± 0,43 | Kb [3]: 0.776 µM
12 | CC(C(=O)c1ccc2c(c1)oc(=O)n2C)N1CCN(c2ccc(F)cc2)CC1 (stereo not drawn) [compound 10] | 1.26 | Agoniste partiel | 4,59 ± 0,61 |  | pA2 = 5,3 ± 0,12 | 
13 | Cn1c(=O)oc2cc(C(O)CN3CCN(c4cccc(C(F)(F)F)c4)CC3)ccc21 (stereo not drawn) [compound 31, 2-[4-(3-trifluorométhyl)phénylpipérazinyl] 1-(3-méthyl 2-benzoxazolinon-6-yl) éthanol] |  |  |  |  |  | activité sur les récepteurs adrénergiques ([2]; adrenergic receptors in general (β1, β2, α), in words): n'a pas une activité de même niveau que les autres composés de l'invention; ED50 [5]: 4.4 mg/kg; ED50 [6]: 9 mg/kg
